For data set [1] the following is noted: from CC(C)(C)OC(=O)N(CCOc1cc(N)ccc1C#N)CCc1nc(Cl)nc2c1CCC2c1ccc(F)cc1; cn_pd bond; 13-membered ring; Pd(OAc)2/Xantphos/Cs2CO3; 1,4-dioxane; 6.0 mM; 110.0 °C.
The test system of the next data set is Aβ42. In words: Cellular assay for inhibition of Aβ1-42 production (H4 APP751 SWE clone 8.20). The format is cell-based. Particulars: H4 APP751 SWE clone 8.20 cells, 19 h incubation. In a few lines:
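Inhibition values are IC50s fitted to Viewlux counts after a 19 h compound exposure at 37 °C. Aβ42 was captured by the neoepitope-specific antibody 565 (0.8 ng/well) paired with N-terminal 26D6 (75 ng/well), incubated overnight at 4 °C in pH 7.4 Tris-HCl buffer containing 0.2% BSA.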

[2] abbreviates: read-out: Activity Rating (Aβ42 cellular IC50), class symbol.
Setting [3] is: unit inferred, read-out: Activity Rating (Aβ42 cellular IC50), numeric value.

pIC50: −log10 of the molar value. Where “and” joins values, the source holds several entries; their conditions need not be identical. Identical values can stand only once. Like-named read-outs stand apart in the source and are kept apart here.

Turning to `CC(C)(C)OC(=O)N1CCOc2cc(ccc2C#N)Nc2nc(c3c(n2)C(c2ccc(F)cc2)CC3)CC1` (stereo not drawn), in data set [1], the ring closure, isolated yield came out at 21.4%.

Where the note is “rcm bond, 14-membered ring, Hoveyda-Grubbs II, 1,2-dichloroethane, 0.975 mM, 100.0 °C”, `Clc1cn(-c2ccc3cc2OC/C=C/CCNc2nc(nc4c2CCC4c2ccccc2)N3)cn1` (stereo not drawn) came in with a ring closure, yield after HPLC of 27.7%.

Consider `Clc1cn(-c2ccc3cc2OCCCNC2=NC(=N3)NC3=C2CCC3c2ccccc2)cn1` (stereo not drawn), for which the ring closure, yield after HPLC (cn_pd bond, 12-membered ring, Pd(dba)3 (so in the source)/Xantphos/Cs2CO3, 1,4-dioxane, 30.7 mM, 110.0 °C) is 2.83% and 1.88%.

Turning to `Cc1ncn(-c2ccc3cc2OCC(O)CCNc2nc(nc4c2CCC4c2ccc(F)cc2)N3)n1` (mixture of isomers), the ring closure, yield after HPLC (from Cc1ncn(-c2ccc(N)cc2OCC(O)CCNc2nc(Cl)nc3c2CCC3c2ccc(F)cc2)n1, cn_pd bond, 13-membered ring, Pd(OAc)2/Xantphos/Cs2CO3, dioxane, 100.0 mM, 100.0 °C) came to 24.4%.

For `CN1Cc2c(nc3nc2N(C)CC=CCOc2cc(ccc2C#N)N3)C(c2ccc(F)cc2)C1` (racemic), under “from C=CCOc1cc(Nc2nc3c(c(N(C)CC=C)n2)CN(C)CC3c2ccc(F)cc2)ccc1C#N, rcm bond, 13-membered ring, Hoveyda-Grubbs II, 1,2-dichloroethane, 3.0 mM, 90.0 °C”, the ring closure, yield after HPLC came to 4.95%.

For the compound “(11E)-7-(4-chloro-1H-imidazol-1-yl)-18-phenyl-10,13,14,16,17,18-hexahydro-15,2-(azeno)-8,4-(metheno)cyclopenta[h][1,6,10,12]oxatriazacycloheptadecine [Example 2A]”, the negative-log IC50 (pIC50) – broadly, the negative decadic logarithm of the IC50, by convention in mol/L – with Aβ42 (setting [2]) is 7.00 to 8.00.

As for “(11E)-7-(4-chloro-1H-imidazol-1-yl)-18-phenyl-10,13,14,16,17,18-hexahydro-15,2-(azeno)-8,4-(metheno)cyclopenta[h][1,6,10,12]oxatriazacycloheptadecine [Example 2B]”, the negative logarithm of the IC50 (pIC50) with Aβ42 (setting [3]) was 7.82.

For “(11E)-7-cyano-18-(2,4-difluorophenyl)-10,13,14,16,17,18-hexahydro-15,2-(azeno)-8,4-(metheno)cyclopenta[h][1,6,10,12]oxatriazacycloheptadecine [Example 25A]”, in the data set on Aβ42 (setting [2]), the pIC50 was 7.00 to 8.00.

On to “(11E)-7-cyano-18-(2,4-difluorophenyl)-10,13,14,16,17,18-hexahydro-15,2-(azeno)-8,4-(metheno)cyclopenta[h][1,6,10,12]oxatriazacycloheptadecine [Example 25B]”, for which the pIC50 in the data set with Aβ42 (setting [3]) is 7.28.

For “(11Z)-7-(3-methyl-1H-1,2,4-triazol-1-yl)-18-phenyl-10,13,14,16,17,18-hexahydro-15,2-(azeno)-8,4-(metheno)cyclopenta[h][1,10,12]oxadiazacycloheptadecine [Example 58A]”, the pIC50 in the data set with Aβ42 (setting [2]) was more than 8.00.

Take “(11Z)-7-(3-methyl-1H-1,2,4-triazol-1-yl)-18-phenyl-10,13,14,16,17,18-hexahydro-15,2-(azeno)-8,4-(metheno)cyclopenta[h][1,10,12]oxadiazacycloheptadecine [Example 58B]”: the negative logarithm of the IC50 (pIC50) in the data set with Aβ42 (setting [3]) was 7.62.

Turning to “(11Z)-7-(4-chloro-1H-imidazol-1-yl)-18-phenyl-10,13,14,16,17,18-hexahydro-15,2-(azeno)-8,4-(metheno)cyclopenta[h][1,6,10,12]oxatriazacycloheptadecine [Example 1A]”, the negative logarithm of the IC50 (pIC50) in the data set with Aβ42 (setting [3]) is 8.41.

On to “(11Z)-7-(4-chloro-1H-imidazol-1-yl)-18-phenyl-10,13,14,16,17,18-hexahydro-15,2-(azeno)-8,4-(metheno)cyclopenta[h][1,6,10,12]oxatriazacycloheptadecine [Example 1B]”, for which, in the data set with Aβ42 (setting [2]), the negative-log IC50 (pIC50) was 7.00 to 8.00.

In the case of “(11Z)-7-cyano-18-phenyl-10,13,14,16,17,18-hexahydro-15,2-(azeno)-8,4-(metheno)cyclopenta[h][1,10,12]oxadiazacycloheptadecine [Example 36A]”, the pIC50 in the data set on Aβ42 (setting [2]) was 6.00 to 7.00.

Regarding “(11Z)-18-(2,4-difluorophenyl)-7-(3-methyl-1H-1,2,4-triazol-1-yl)-10,13,14,16,17,18-hexahydro-15,2-(azeno)-8,4-(metheno)cyclopenta[h][1,6,10,12]oxatriazacycloheptadecine [Example 51A]”, the pIC50 with Aβ42 (setting [2]) was more than 8.00.

With “(11Z)-18-(2,4-difluorophenyl)-7-(3-methyl-1H-1,2,4-triazol-1-yl)-10,13,14,16,17,18-hexahydro-15,2-(azeno)-8,4-(metheno)cyclopenta[h][1,6,10,12]oxatriazacycloheptadecine [Example 51B]”, the negative-log IC50 (pIC50) with Aβ42 (setting [2]) is 7.00 to 8.00.

On to “(11Z)-18-(2,4-difluorophenyl)-7-(5-methyl-1H-1,2,4-triazol-1-yl)-10,13,14,16,17,18-hexahydro-15,2-(azeno)-8,4-(metheno)cyclopenta[h][1,6,10,12]oxatriazacycloheptadecine [Example 53A]”, for which the negative-log IC50 (pIC50) in the data set with Aβ42 (setting [2]) was more than 8.00.

In the case of “(11Z)-18-(2,4-difluorophenyl)-7-(5-methyl-1H-1,2,4-triazol-1-yl)-10,13,14,16,17,18-hexahydro-15,2-(azeno)-8,4-(metheno)cyclopenta[h][1,6,10,12]oxatriazacycloheptadecine [Example 53B]”, in the data set on Aβ42 (setting [3]), the pIC50 is 7.77.

These data come from patent US8637523B2, “Compounds for the reduction of beta-amyloid production” (Bristol-Myers Squibb Company, priority 2010, dated 2014).
